# Data from PubChem BioAssay (NCI).
# “And” between values parts separate entries of the source, which are not always exact repeats. Equal values may be shown once.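 Method: 48-hour compound exposure of cells in 96-well plates, five concentrations, linear interpolation of endpoints. The concentration for 50% growth inhibition is given as GI50. Definition used: TGI = concentration required for complete inhibition of growth.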
# Columns and labels:
# Experiment in all cases: NCI-60 cell line screen, 48 h
# [1] = tested on: A498 renal
# [2] = tested on: KM12 colon
# [3] = tested on: MALME-3M melanoma
# [4] = tested on: MDA-MB-435
# [5] = tested on: OVCAR-3 ovarian
# [6] = tested on: RPMI-8226 leukemia
# [7] = tested on: SF-295 CNS
# [8] = tested on: SK-MEL-2 melanoma
SMILES,TGI [1],TGI [2],TGI [3],TGI [4],TGI [5],TGI [6],TGI [7],TGI [8],GI50 [1],GI50 [2],GI50 [3],GI50 [4],GI50 [5],GI50 [6],GI50 [7],GI50 [8]
COc1cccc(/C=C/c2ccnc3ccccc23)c1OC,> 10 µM,> 10 µM,> 10 µM,> 10 µM,> 10 µM,> 10 µM,> 10 µM,> 10 µM,,,,,,,,
CCN(CC)c1ccc(C2NC(=O)c3ccccc3N2)cc1 (stereo not given),> 31.6 µM,,> 100 µM,3.44 µM,> 100 µM,> 100 µM,> 86.3 µM,> 100 µM,,,,,,,,
Cc1ccc(NC(=O)Nc2c(Cl)cccc2Cl)cn1,> 100 µM,> 100 µM,> 100 µM,4.69 µM,22.7 µM,> 100 µM,> 100 µM,27.5 µM,12.1 µM,4.37 µM,8.57 µM,1.96 µM,4.5 µM,9.16 µM,5.49 µM,5.87 µM
CCN(CC)c1ccc2nc3c4ccccc4c(=O)cc-3n(-c3ccccc3)c2c1,4.59 µM,4.46 µM,3.56 µM,3.46 µM,3.85 µM,2.58 µM,3.28 µM,3.95 µM,0.653 µM,1.69 µM,1.4 µM,0.899 µM,1.16 µM,0.49 µM,1.29 µM,1.42 µM
O=c1c2ccccc2nc(-c2ccccc2Cl)n1-c1nnc(C(F)(F)F)s1,5.07 µM,14.1 µM,7.35 µM,53.1 µM,11.4 µM,8.13 µM,9.11 µM,6.27 µM,1.77 µM,3.68 µM,2.51 µM,3.19 µM,3.25 µM,2.26 µM,2.44 µM,2.72 µM
CC[C@]1(O)CC2CN(CCc3c([nH]c4ccccc34)[C@@](C(=O)OC)(c3cc4c(cc3OC)N(C=O)[C@H]3[C@@](O)(C(=O)OC)[C@H](OC(C)=O)[C@]5(CC)C=CCN6CC[C@]43[C@@H]65)C2)C1 (stereo not given in full),,> 50 µM,,< 0.005 µM,,17.8 µM,1.35 µM,4.16 µM,0.0123 µM,< 0.005 µM,,< 0.005 µM,< 0.005 µM,< 0.005 µM,< 0.005 µM,< 0.005 µM
NC(=O)CC1(O)C=C(Br)C(=O)C(Br)=C1,29.3 µM,27.2 µM,4.36 µM,7.31 µM,5.34 µM,6.82 µM,26.5 µM,18.4 µM,15.8 µM,13.8 µM,2.12 µM,2.04 µM,2.22 µM,2.25 µM,12.6 µM,5.21 µM
COc1ccc(-c2[nH]nc(N)c2-c2cc(OC)c3c(c2)OCO3)cc1,6.75 µM,31.6 µM,> 100 µM,2.54 µM,6.05 µM,52.3 µM,32.4 µM,6.42 µM,1.88 µM,2.35 µM,5.01 µM,0.559 µM,2.48 µM,3.8 µM,3.92 µM,2.81 µM
O=C1C=CC(=Nc2cccc3c(N=C4C=CC(=O)O4)cccc23)O1,> 100 µM,> 100 µM,42.8 µM,> 100 µM,> 100 µM,58.2 µM,> 100 µM,> 100 µM,,,,,,,,
Nc1cc(C(F)(F)F)c(-c2cc(N3CCOCC3)nc(N3CCOCC3)n2)cn1,0.713 µM and 1.09 µM,> 10 µM and 8.55 µM,2.53 µM and 4.95 µM,1.03 µM and 1.32 µM,4.71 µM and 4.45 µM,> 23.1 µM,2.51 µM and 4.26 µM,3.39 µM and 2.27 µM,0.189 µM and 0.205 µM,1.39 µM and 1.22 µM,0.325 µM and 0.369 µM,0.275 µM and 0.29 µM,0.919 µM and 1.03 µM,1.31 µM and 1.47 µM,0.463 µM and 0.613 µM,0.678 µM and 0.385 µM
NC1=NC(=O)/C(=C/c2ccc3ncccc3c2)S1,> 25 µM,> 25 µM,> 25 µM,> 25 µM,> 25 µM,> 25 µM,> 25 µM,> 25 µM,> 17.3 µM,> 25 µM,> 25 µM,> 10.9 µM,> 25 µM,> 25 µM,> 25 µM,> 20.7 µM
CC(c1ccccc1)[C@@H](C(=O)Nc1ccc(I)cc1F)N1C(=O)N[C@H](c2ccc(OC[C@H](O)CO)cc2)C1=O (stereo not given in full),2.3 µM,> 25 µM,0.0856 µM,> 25 µM,> 25 µM,> 25 µM,> 25 µM,1.51 µM,0.541 µM,2.4 µM,0.0025 µM,0.0817 µM,> 21.3 µM,11.9 µM,> 25 µM,0.158 µM
O=S(=O)(c1ccccc1)N1CN2CN(C1)CN(S(=O)(=O)c1ccccc1)C2,> 100 µM,> 100 µM,,> 100 µM,> 100 µM,> 100 µM,> 100 µM,> 100 µM,,,,,,,,
